Several values for one entry are separate records, joined by “and”; a condition that tells them apart may be missing. Identical values can stand only once. Like-named read-outs stand apart in the source and are kept apart here. Where a SMILES comes first, the peptide text is derived from it. Where no end group is shown, it is not given here. [ ]: non-standard residue; d: D form. The star is where a group is joined. DOTA = O=C(O)CN1CCN(CC(=O)O)CCN(CC(=O)*)CCN(CC(=O)O)CC1; Hyp = O=C(O)[C@@H]1C[C@@H](O)CN1; Cha = N[C@@H](CC1CCCCC1)C(=O)O; PEG2 = NCCOCCOCCC(=O)O; Ahx = NCCCCCC(=O)O; Sar = CNCC(=O)O
Legend:
[1] = test system: HEK-293 and HEK-293/BKRB1 tumours; details: mouse
Protocol: (§2) For in vivo imaging, HEK-293 and HEK-293 cells stably transfected with the human bradykinin receptor B1 (HEK-293/BKRB1) were inoculated in the flank of immunodeficient mice (NODSCID IL2rKO). […] A computer tomography image of the mouse was obtained for organ localization and attenuation correction, followed by PET imaging, using a Siemens Inveon multimodality preclinical scanner. Images were acquired over 10-15 minutes for each animal.

[2] = molecular target: T1, B1R (Homo sapiens, UniProt P46663); test: Competitive binding assay with 3H radioligand on CHO-K1 cell membranes over-expressing human B1R; parameters: purchased Perkin Elmer Inc., Waltham, Mass; ES-091-M400UA; host or cells: CHO-K1 cells over-expressing human B1R (membrane preparation)
T1 sequence (P46663 1-353): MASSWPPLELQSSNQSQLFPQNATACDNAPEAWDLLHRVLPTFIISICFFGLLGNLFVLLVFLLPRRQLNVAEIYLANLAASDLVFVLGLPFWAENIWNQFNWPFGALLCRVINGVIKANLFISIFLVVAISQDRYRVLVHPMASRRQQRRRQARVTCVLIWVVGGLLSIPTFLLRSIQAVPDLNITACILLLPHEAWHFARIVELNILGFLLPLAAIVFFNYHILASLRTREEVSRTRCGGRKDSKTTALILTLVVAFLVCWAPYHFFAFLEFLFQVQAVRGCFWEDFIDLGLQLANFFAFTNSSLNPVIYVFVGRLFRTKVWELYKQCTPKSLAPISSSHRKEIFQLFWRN
Protocol: The ability of the peptide and small molecule B1R targeting compounds to bind to B1R was assessed in competitive binding assay as described below.
Preparation of Cell Membranes: Ready to use cell membranes (12.5 μg/μL) from CHO-K1 cells over-expressing human B1R were obtained from Perkin Elmer Inc., Waltham, Mass. (cat. no. ES-091-M400UA). Binding using cell membranes from HEK293T::GFP::hB1R (from Example 3) was also tested. In the latter case, the membranes were prepared as follows: 90% confluent cells grown in large flask, T225, were detached and pelleted in a 50 mL conical tube using centrifuge at 1,200 rpm for 5 minutes. Afterward, cells were re-suspended in 20-30 mL of cold 50 mM Tris-HCl pH 7.4. Ice cold cells were disrupted for 15 seconds at 15,000 rpm with a Polytron PT3100 (Kinematica AG, Lucerne, Switzerland). The solution was aliquoted and centrifuged at 4° C. at 17,000×g for 30 minutes. The supernatant was discarded, and then the pellet was dissolved in 1-2 mL of cold salt solution containing 50 mM Tris-HCl pH 7.4 and 100 mM NaCl and incubated for 1 hour on ice. The cell membranes were pelleted by centrifugation at 4° C. at 17,000×g for 30 minutes and resuspended in 200-600 μL of 50 mM Tris-HCl pH 7.4. The cell membrane extract was stored at −80° C. Protein concentration was determined by Bradford assay (cat. no. R1271, Fermentas, Thermo Fisher Scientific, Burlington, ON). 50 ug of cell membranes per well was used for the competitive binding assay. […] Radio-labelled control was H-3 labelled [Leu^9,des-Arg^10] kallidin obtained either from American Radiolabelled Chemicals Inc, St. Louis, Mo.
Competitive Binding Assays: Assays were performed using 96-well MultiScreenHTS with glass fiber filter and PVDF support obtained from Millipore Corp, Billerica, Mass. (cat. no. MSFB N6B, lot no. R8AN42424). Wells of the MultiScreen plate were pre-soaked with 0.5% of cold Poly(ethyleneimine) (PEI) (cat. no. P3143, Sigma-Aldrich, St. Louis, Mo.) for 30 minutes. Afterward, wells were washed once with 50 mM of Tris-HCl pH 7.4. Total volume per wells was 200 μL. A fixed concentration of the hot radioligand (1, 3, 5 or 12.5 nM depending on the radioligand; see Table 5) was incubated with progressively higher concentrations (10^−11 to 10^−4 M) of the non-radioactive competitor of interest in the presence of cell membranes (50 μg/well) and the assay buffer (50 mM Tris-HCl pH 7.4, 5 mM MgCl2). The MultiScreen plate was then incubated at 27° C. for 15 minutes with agitation at 300 rpm. The assay was stopped by suctioning the reaction solution through the bottom PVDF membrane filter and discarded. The membranes were washed 7× with 150 μL/well of cold 50 mM Tris-HCl pH 7.4. Radioactivity was counted using 1450 MicroBeta TriLux—Microplate Scintillation and Luminescence Counter (Perkin Elmer Inc., Shelton, Conn.).

[3] = test system: HEK-293 and HEK-293/BKRB1 tumours; test: PET/CT imaging of 68Ga-labelled peptides in tumour-bearing mice; details: PET/CT 60 minutes after intravenous injection
Protocol: as §2

[4] = in vivo; details: NODSCID/IL2RKO, mouse, total radioactivity
Protocol: (§1) ^68Ga labeling of Peptide 4 was performed in NaOAc buffer (pH 4.1) at 110° C. for 10 min, and [^68Ga]P03083 was purified by HPLC. PET imaging and biodistribution studies were performed in NODSCID/IL2RKO mice bearing both B1R-negative HEK293T:GFP tumour and B1R-positive HEK293T:hB1R tumour.

[5] = test system: B1R-negative HEK293T:GFP tumour and B1R-positive HEK293T:hB1R tumour; test: in vivo; details: mouse
Protocol: as §1

[6] = molecular target: T1, B1R; details: Cote et al, Peptides 2009; cited from earlier work
[7] = molecular target: T2, B2R (Homo sapiens, UniProt P30411); details: Cote et al, Peptides 2009; cited from earlier work
T2 sequence (P30411 1-391): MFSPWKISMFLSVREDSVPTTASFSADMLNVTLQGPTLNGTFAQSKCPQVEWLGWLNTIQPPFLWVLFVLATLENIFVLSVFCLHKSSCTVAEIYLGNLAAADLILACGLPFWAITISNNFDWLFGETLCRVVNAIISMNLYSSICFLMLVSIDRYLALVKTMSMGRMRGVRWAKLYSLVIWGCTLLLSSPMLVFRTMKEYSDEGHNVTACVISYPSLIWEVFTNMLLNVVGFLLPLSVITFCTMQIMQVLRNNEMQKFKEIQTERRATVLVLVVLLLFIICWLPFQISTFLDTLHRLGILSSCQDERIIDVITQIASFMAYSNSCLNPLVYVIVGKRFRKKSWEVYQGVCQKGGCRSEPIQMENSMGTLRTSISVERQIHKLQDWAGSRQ

CC(C)C[C@H](NC(=O)[C@@H]1CCCN1C(=O)[C@H](CO)NC(=O)[C@H](CC1CCCCC1)NC(=O)CNC(=O)[C@@H]1C[C@@H](O)CN1C(=O)[C@@H]1CCCN1C(=O)[C@H](CCCNC(=N)N)NC(=O)[C@H](CCCCN)NC(=O)CCOCCOCCNC(=O)CN1CCN(CC(=O)O)CCN(CC(=O)O)CCN(CC(=O)O)CC1)C(=O)O [Peptide 3, Ga-DOTA-PEG2-Lys-Arg-Pro-Hyp-Gly-Cha-Ser-Pro-Leu] ({DOTA-PEG2}-KRP[Hyp]G[Cha]SPL-OH)
background activity ([1]; in vivo, iv): very low background activity | clearance route ([1]; in vivo, iv): renal and bladder clearance | Ki ([2]; Hot 4.6 nM BK-ANT-ARC, CHO-K1 membranes, individual assays, read-out: Ki): 17.1 nM and 16 nM | Ki ([2]; text of Example 5, referring to Example 4, read-out: binding affinity for B1R): 32.8 nM

CC(C)C[C@H](NC(=O)[C@@H]1CCCN1C(=O)[C@H](CO)NC(=O)[C@H](CC1CCCCC1)NC(=O)CNC(=O)[C@@H]1C[C@@H](O)CN1C(=O)[C@@H]1CCCN1C(=O)[C@H](CCCNC(=N)N)NC(=O)[C@H](CCCCN)NC(=O)CNC(=O)CNC(=O)CN1CCN(CC(=O)O)CCN(CC(=O)O)CCN(CC(=O)O)CC1)C(=O)O [Peptide 8, Ga-DOTA-Gly-Gly-Lys-Arg-Pro-Hyp-Gly-Cha-Ser-Pro-Leu] ({DOTA}-GGKRP[Hyp]G[Cha]SPL-OH)
clearance route [3]: predominantly via the kidneys and bladder | uptake / visualization of B1R+ tumour [3]: good visualization of B1R+ expressing cells | uptake in negative control (B1R-) tumour [3]: essentially negligible non-specific uptake

CC(C)C[C@H](NC(=O)[C@@H]1CCCN1C(=O)[C@H](CO)NC(=O)[C@H](Cc1ccccc1)NC(=O)CNC(=O)[C@@H]1CCCN1C(=O)[C@@H]1CCCN1C(=O)[C@H](CCCNC(=N)N)NC(=O)[C@H](CCCCN)NC(=O)CCCCCNC(=O)CN1CCN(CC(=O)O)CCN(CC(=O)O)CCN(CC(=O)O)CC1)C(=O)O [[^68Ga]-Peptide 4, metal not drawn]
tissue uptake at 1 h ([4]; kidney uptake): 74.9 ± 29.2 %ID/g | tissue uptake at 1 h ([4]; uptakes in both B1R-negative and B1R-positive tumors): 1.1 ± 0.4 %ID/g | excretion of radioactivity [5]: mainly excreted through the renal pathway | specific uptake to B1R in tumours [5]: No specific uptake

CC(C)C[C@H](NC(=O)[C@@H]1CCCN1C(=O)[C@H](CO)NC(=O)[C@H](CC1CCCCC1)NC(=O)CNC(=O)[C@@H]1C[C@@H](O)CN1C(=O)[C@@H]1CCCN1C(=O)[C@H](CCCNC(=N)N)NC(=O)[C@H](CCCCN)NC(=O)CCCCCNC(=O)CN1CCN(CC(=O)O)CCN(CC(=O)O)CCN(CC(=O)O)CC1)C(=O)O [Peptide 10, Ga-DOTA-Ahx-Lys-Arg-Pro-Hyp-Gly-Cha-Ser-Pro-Leu] ({DOTA-Ahx}-KRP[Hyp]G[Cha]SPL-OH)
in vivo stability [1]: much greater in vivo stability | background activity ([1]; in vivo, iv): lower background uptake

N=C(N)NCCC[C@H](NC(=O)[C@H](CCCCN)NC(=O)CCCCCNC(=O)CN1CCN(CC(=O)O)CCN(CC(=O)O)CCN(CC(=O)O)CC1)C(=O)N1CCC[C@H]1C(=O)N1C[C@H](O)C[C@H]1C(=O)NCC(=O)N[C@@H](CC1CCCCC1)C(=O)N[C@@H](CO)C(=O)N1CCC[C@H]1C(=O)N[C@H](Cc1ccccc1)C(=O)O [Peptide 12, Ga-DOTA-Ahx-Lys-Arg-Pro-Hyp-Gly-Cha-Ser-Pro-(D-Phe)]
background activity [3]: minimal background activity | clearance route [3]: good clearance through the kidneys and bladder | uptake / visualization of B1R+ tumour [3]: Slightly higher tumour uptake | uptake in negative control (B1R-) tumour [3]: no non-specific tumour uptake

Sar-Lys-Arg-Pro-Hyp-Gly-Cha-Ser-Pro-(D-Phe) ([Sar]KRP[Hyp]G[Cha]SP[dF])
Ki [6]: 0.06 nM | Ki [7]: > 10000 nM
